Measurements published in patent publication US20070116781A1, “Hydrogen Cyanamide Pesticide Formulations” (priority 2005, published 2007).

Key:
reniform nematodes = assay: Nematicidal activity in covered pots of naturally infested silt loam, soybean planted after 12 days; type: in vivo, Rotylenchulus reniformus
Protocol: In this study, the soil was naturally infested with four species of nematodes, two of which were deleterious and two beneficial, and observations were made of both the nematode survival and the growth of the soybean plants.
Stock solutions of hydrogen cyanamide at 1.0% by weight and propionic acid at 5.0% by weight, both in water, were prepared, the hydrogen cyanamide from a phosphate-buffered 50% aqueous solution. Planting pots measuring 10 cm in diameter, each containing 1 kg of soil, were used. The soil was silt loam from a cotton field, pH 6.2, CEC<10 meq/100 g soil, organic matter<1.0%. The treatment chemicals were combined in various dilutions such that 100 mL of the combined dilutions contained the desired amount of each chemical for each test. The combined dilutions were then applied to the soil surface in each pot, at 100 mL of combined dilution per pot. The dilutions were selected to achieve target application rates expressed in milligrams of the treatment chemical per kilogram of soil, with 1 milligram of treatment chemical per kilogram of soil being approximately equal to 2 kilograms of the chemical per hectare of soil or 2 pounds of the chemical per acre of soil.
Immediately after the treatment chemicals were applied, each pot was covered by a thick (1.5 mil), clear, low-density polyethylene bag. After twelve days, the bags were removed and soil samples were taken from each pot for nematological analysis by the salad bowl technique of Rodriguez-Kabana, R., and M. H. Pope, Nematropica, 11: 175-186 (1981). The results of these analyses are listed in Table I as pre-plant test results. The results for the two deleterious nematodes are also shown as plots of the number of nematodes vs. the hydrogen cyanamide application rate in FIGS. 1 and 2.
After the polyethylene bags were removed, each pot was planted with Hutcheson soybean seeds at 5 seeds per pot, and the seeds were allowed to germinate and the plants to grow for 45 days. The resulting plants were then removed from the pots, the root systems were washed, and the number of plants in each pot was determined. The weights of both fresh shoots and roots were also determined as well as the shoot height and the relative health of the root system, using a subjective index. Soil samples were also collected, and the soil and roots were incubated to determine nematode populations. Treatments were arranged in randomized complete block design with seven replications per treatment, and statistical evaluation of the data was performed with analyses of variance (ANOVA) and standard regression procedures. Fischer's Least Significant Difference at p 0.05 was calculated when appropriate. The results of these tests are listed as final test results in Tables II, III, and IV, with nematode populations in the soil listed in Table II, the nematode populations in the root systems in Table III, and the plant and root parameters of the soybean shoots in Table IV.

all weeds = assay: Herbicidal activity, phosphate-free cyanamide and propionic acid, post-emergence, uncovered pots; type: in vivo
Excerpt: (§1) The procedures in this example differed from those of Example 2, however, by the use of hydrogen cyanamide crystals free of phosphate ion to prepare the aqueous hydrogen cyanamide solution, by the use of post-emergence application, and by the omission of any covering of the pots during any part of the test. Observations were made for total weed growth, and individual observations were also made for yellow nutsedge, crabgrass, sicklepod, and momingglory. Stock solutions of hydrogen cyanamide at 1.25% by weight and propionic acid at 5.0% by weight, both in water, were prepared as before, except that the hydrogen cyanamide solution, as noted above, was prepared by dissolving hydrogen cyanamide crystals in water in the absence of phosphate ion. […] The weeds were allowed to grow for three weeks before the treatment chemicals were applied. […] Data analyses were performed in the same manner as Examples 1 and 2. Table IX lists the results in weeds per pot for all weeds, Table X for yellow nutsedge, Table XI for crabgrass, Table XII for sicklepod, and Table XIII for morningglory, all both with propionic acid alone at various application […]

crabgrass = assay: as above; type: in vivo, Digitaria sanguinalis
Excerpt: as §1

sicklepod = assay: as above; type: in vivo, Senna obtusifolia
Excerpt: The procedures in this example differed from those of Example 2, however, by the use of hydrogen cyanamide crystals free of phosphate ion to prepare the aqueous hydrogen cyanamide solution, by the use of post-emergence application, and by the omission of any covering of the pots during any part of the test. Observations were made for total weed growth, and individual observations were also made for yellow nutsedge, crabgrass, sicklepod, and momingglory. Stock solutions of hydrogen cyanamide at 1.25% by weight and propionic acid at 5.0% by weight, both in water, were prepared as before, except that the hydrogen cyanamide solution, as noted above, was prepared by dissolving hydrogen cyanamide crystals in water in the absence of phosphate ion. […] The weeds were allowed to grow for three weeks before the treatment chemicals were applied. […] Data analyses were performed in the same manner as Examples 1 and 2. Table IX lists the results in weeds per pot for all weeds, Table X for yellow nutsedge, Table XI for crabgrass, Table XII for sicklepod, and Table XIII for morningglory, all both with propionic acid alone at various application rates and with […]

[1] = 6 d after treatment, C2H5CO2H 100 mg/kg soil
[2] = 6 d after treatment, C2H5CO2H 200 mg/kg soil
[3] = 6 d after treatment, C2H5CO2H 300 mg/kg soil
[4] = 6 d after treatment, C2H5CO2H 400 mg/kg soil
[5] = 6 d after treatment, C2H5CO2H 500 mg/kg soil
[6] = 13 d after treatment, C2H5CO2H 100 mg/kg soil
[7] = 13 d after treatment, C2H5CO2H 200 mg/kg soil
[8] = 13 d after treatment, C2H5CO2H 300 mg/kg soil
[9] = 13 d after treatment, C2H5CO2H 400 mg/kg soil
[10] = 13 d after treatment, C2H5CO2H 500 mg/kg soil
[11] = 20 d after treatment, C2H5CO2H 100 mg/kg soil
[12] = 20 d after treatment, C2H5CO2H 200 mg/kg soil
[13] = 20 d after treatment, C2H5CO2H 300 mg/kg soil
[14] = 20 d after treatment, C2H5CO2H 400 mg/kg soil
[15] = 20 d after treatment, C2H5CO2H 500 mg/kg soil
[16] = 6 d after treatment, cyanamide 150 mg/kg soil
[17] = 13 d after treatment, cyanamide 150 mg/kg soil
[18] = 20 d after treatment, cyanamide 150 mg/kg soil
[19] = hydrogen cyanamide 125 mg/kg of soil alone, all intervals

With `CCC(=O)O` [C2H5CO2H, propionic acid] the “Surviving Nematodes: Reniform” value (reniform nematodes; 12 d after treatment, pre-plant, C2H5CO2H 250 mg/kg soil) was 280 per 100 mL of soil, the “Surviving Nematodes: Reniform” value (reniform nematodes; 57 d after treatment, 45 d after planting, C2H5CO2H 250 mg/kg soil) was 328 per 100 mL of soil and the “Surviving Nematodes in Root System: Reniform” value (reniform nematodes; 57 d after treatment, C2H5CO2H 250 mg/kg soil) was 64.7 Per Pot. The “Weeds Per Pot: All Weeds” value (all weeds; [1]) was 22.4, the “Weeds Per Pot: All Weeds” value (all weeds; [2]) was 12.6 and the “Weeds Per Pot: All Weeds” value (all weeds; [3]) was 5.7. For the same compound, the “Weeds Per Pot: All Weeds” value (all weeds; [4]) was 4, the “Weeds Per Pot: All Weeds” value (all weeds; [5]) was 3.4 and the “Weeds Per Pot: All Weeds” value (all weeds; [6]) was 24.4. The “Weeds Per Pot: All Weeds” value (all weeds; [7]) was 14.9, the “Weeds Per Pot: All Weeds” value (all weeds; [8]) was 8.6 and the “Weeds Per Pot: All Weeds” value (all weeds; [9]) was 7.6. For the same compound, the “Weeds Per Pot: All Weeds” value (all weeds; [10]) was 6.7, the “Weeds Per Pot: All Weeds” value (all weeds; [11]) was 25.1 and the “Weeds Per Pot: All Weeds” value (all weeds; [12]) was 15.9. For the same compound, the “Weeds Per Pot: All Weeds” value (all weeds; [13]) was 10, the “Weeds Per Pot: All Weeds” value (all weeds; [14]) was 8.4 and the “Weeds Per Pot: All Weeds” value (all weeds; [15]) was 8. For the same compound, the “Herbicidal activity of propionic acid alone” value (all weeds; post-emergence, uncovered pots) was “demonstrated herbicidal activity on its own”, the “Weeds Per Pot: Crabgrass” value (crabgrass; [1]) was 9.9 and the “Weeds Per Pot: Crabgrass” value (crabgrass; [2]) was 5.1. For the same compound, the “Weeds Per Pot: Crabgrass” value (crabgrass; [3]) was 3, the “Weeds Per Pot: Crabgrass” value (crabgrass; [4]) was 0.6 and the “Weeds Per Pot: Crabgrass” value (crabgrass; [5]) was 0.6. The “Weeds Per Pot: Crabgrass” value (crabgrass; [6]) was 10.6, the “Weeds Per Pot: Crabgrass” value (crabgrass; [7]) was 5.4 and the “Weeds Per Pot: Crabgrass” value (crabgrass; [8]) was 3.9. For the same compound, the “Weeds Per Pot: Crabgrass” value (crabgrass; [9]) was 1.3, the “Weeds Per Pot: Crabgrass” value (crabgrass; [10]) was 0.7 and the “Weeds Per Pot: Crabgrass” value (crabgrass; [11]) was 11.6. For the same compound, the “Weeds Per Pot: Crabgrass” value (crabgrass; [12]) was 6, the “Weeds Per Pot: Crabgrass” value (crabgrass; [13]) was 3.4 and the “Weeds Per Pot: Crabgrass” value (crabgrass; [14]) was 1.3. The “Weeds Per Pot: Crabgrass” value (crabgrass; [15]) was 1.6, the “Weeds Per Pot: Sicklepod” value (sicklepod; [1]) was 3.1 and the “Weeds Per Pot: Sicklepod” value (sicklepod; [2]) was 1.3. The “Weeds Per Pot: Sicklepod” value (sicklepod; [3]) was 0.9, the “Weeds Per Pot: Sicklepod” value (sicklepod; [4]) was 0.4 and the “Weeds Per Pot: Sicklepod” value (sicklepod; [5]) was 0.7. The “Weeds Per Pot: Sicklepod” value (sicklepod; [6]) was 3.6, the “Weeds Per Pot: Sicklepod” value (sicklepod; [7]) was 2.4 and the “Weeds Per Pot: Sicklepod” value (sicklepod; [8]) was 1.4. The “Weeds Per Pot: Sicklepod” value (sicklepod; [9]) was 1.6, the “Weeds Per Pot: Sicklepod” value (sicklepod; [10]) was 2 and the “Weeds Per Pot: Sicklepod” value (sicklepod; [11]) was 3.1. For the same compound, the “Weeds Per Pot: Sicklepod” value (sicklepod; [12]) was 2.3, the “Weeds Per Pot: Sicklepod” value (sicklepod; [13]) was 1.9 and the “Weeds Per Pot: Sicklepod” value (sicklepod; [14]) was 1.9. For the same compound, the “Weeds Per Pot: Sicklepod” value (sicklepod; [15]) was 2.1.
`N#CN` [Cyanamide, hydrogen cyanamide] was tested, and the “Surviving Nematodes: Reniform” value (reniform nematodes; 12 d after treatment, pre-plant, cyanamide 20 mg/kg soil) was 274 per 100 mL of soil, the “Surviving Nematodes: Reniform” value (reniform nematodes; 12 d after treatment, pre-plant, cyanamide 40 mg/kg soil) was 191 per 100 mL of soil and the “Surviving Nematodes: Reniform” value (reniform nematodes; 12 d after treatment, pre-plant, cyanamide 60 mg/kg soil) was 102 per 100 mL of soil. For the same compound, the “Surviving Nematodes: Reniform” value (reniform nematodes; 12 d after treatment, pre-plant, cyanamide 80 mg/kg soil) was 120 per 100 mL of soil, the “Surviving Nematodes: Reniform” value (reniform nematodes; 12 d after treatment, pre-plant, cyanamide 120 mg/kg soil) was 16 per 100 mL of soil and the “Surviving Nematodes: Reniform” value (reniform nematodes; 57 d after treatment, 45 d after planting, cyanamide 20 mg/kg soil) was 240 per 100 mL of soil. For the same compound, the “Surviving Nematodes: Reniform” value (reniform nematodes; 57 d after treatment, 45 d after planting, cyanamide 40 mg/kg soil) was 190 per 100 mL of soil, the “Surviving Nematodes: Reniform” value (reniform nematodes; 57 d after treatment, 45 d after planting, cyanamide 60 mg/kg soil) was 167 per 100 mL of soil and the “Surviving Nematodes: Reniform” value (reniform nematodes; 57 d after treatment, 45 d after planting, cyanamide 80 mg/kg soil) was 354 per 100 mL of soil. For the same compound, the “Surviving Nematodes: Reniform” value (reniform nematodes; 57 d after treatment, 45 d after planting, cyanamide 120 mg/kg soil) was 95 per 100 mL of soil, the “Surviving Nematodes in Root System: Reniform” value (reniform nematodes; 57 d after treatment, cyanamide 20 mg/kg soil) was 25.7 Per Pot and the “Surviving Nematodes in Root System: Reniform” value (reniform nematodes; 57 d after treatment, cyanamide 40 mg/kg soil) was 9.6 Per Pot. For the same compound, the “Surviving Nematodes in Root System: Reniform” value (reniform nematodes; 57 d after treatment, cyanamide 60 mg/kg soil) was 13.4 Per Pot, the “Surviving Nematodes in Root System: Reniform” value (reniform nematodes; 57 d after treatment, cyanamide 80 mg/kg soil) was 19.4 Per Pot and the “Surviving Nematodes in Root System: Reniform” value (reniform nematodes; 57 d after treatment, cyanamide 120 mg/kg soil) was 4.3 Per Pot. For the same compound, the “Weeds Per Pot: All Weeds” value (all weeds; [16]) was 6.3, the “Weeds Per Pot: All Weeds” value (all weeds; [17]) was 7.7 and the “Weeds Per Pot: All Weeds” value (all weeds; [18]) was 10.1. The “Total weeds per pot” value (all weeds; [19]) was “less than ten total weeds per pot”, the “Weeds Per Pot: Crabgrass” value (crabgrass; [16]) was 0 and the “Weeds Per Pot: Crabgrass” value (crabgrass; [17]) was 0.4. The “Weeds Per Pot: Crabgrass” value (crabgrass; [18]) was 0.3, the “Crabgrass weeds per pot” value (crabgrass; [19]) was “about one or fewer crabgrass weeds per pot” and the “Weeds Per Pot: Sicklepod” value (sicklepod; [16]) was 0.6. The “Weeds Per Pot: Sicklepod” value (sicklepod; [17]) was 1.4, the “Weeds Per Pot: Sicklepod” value (sicklepod; [18]) was 1 and the “Sicklepod weeds per pot” value (sicklepod; [19]) was “about one or fewer sicklepod weeds per pot”.
